# Where “and” joins values, the source holds several entries; their conditions need not be identical. Identical values can stand only once. Like-named read-outs stand apart in the source and are kept apart here.
# Tests used:
# [1] = Pharmacokinetics after i.v. or oral dose in dogs; type: in vivo, beagle dogs; settings: dog; for concentration at 2 min / concentration at 5 min / concentration at 10 min / concentration at 30 min / concentration at 60 min / concentration at 120 min / concentration at 180 min / concentration at 240 min / concentration at 360 min: plasma; for bioavailability: NDMC p.o. 10 mg/kg vs i.v. 1 mg/kg, read-out: BA (oral bioavailability)
# D3 dopamine receptor = D3 dopamine receptor (Homo sapiens, UniProt P35462); settings: R-SAT; nr = no significant antagonist or inverse agonist activity up to 1 μM; nr* = nr but significant agonist activity
# [2] = steady state kinetics in humans (ref. 13); cited from earlier work
# M4 muscarinic receptor = target: T1, M4 muscarinic receptor (Homo sapiens, UniProt P08173); assay: R-SAT agonist assay; type: cell-based; set-up: expressed in transfected cells; host or cells: NIH/3T3; settings: relative to carbachol, No response/nr = no agonist activity up to 10 μM
# T1 sequence (P08173 1-479): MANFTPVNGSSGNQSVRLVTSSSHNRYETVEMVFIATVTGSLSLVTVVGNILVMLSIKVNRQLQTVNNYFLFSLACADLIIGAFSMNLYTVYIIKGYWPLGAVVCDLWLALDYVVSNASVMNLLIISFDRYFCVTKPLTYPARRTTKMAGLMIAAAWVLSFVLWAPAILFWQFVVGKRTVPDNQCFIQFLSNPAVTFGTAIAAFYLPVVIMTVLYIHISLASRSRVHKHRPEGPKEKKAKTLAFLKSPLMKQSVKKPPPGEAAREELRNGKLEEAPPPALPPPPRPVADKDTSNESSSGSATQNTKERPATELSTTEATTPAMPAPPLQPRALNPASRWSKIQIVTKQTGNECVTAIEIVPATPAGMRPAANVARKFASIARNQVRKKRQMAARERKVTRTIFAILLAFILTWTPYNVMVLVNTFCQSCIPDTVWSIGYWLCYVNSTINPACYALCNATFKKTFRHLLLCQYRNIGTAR
# M5 muscarinic receptor = target: T2, M5 muscarinic receptor (Homo sapiens, UniProt P08912); assay: R-SAT agonist assay; type: cell-based; set-up: expressed in transfected cells; host or cells: NIH/3T3
# T2 sequence (P08912 1-532): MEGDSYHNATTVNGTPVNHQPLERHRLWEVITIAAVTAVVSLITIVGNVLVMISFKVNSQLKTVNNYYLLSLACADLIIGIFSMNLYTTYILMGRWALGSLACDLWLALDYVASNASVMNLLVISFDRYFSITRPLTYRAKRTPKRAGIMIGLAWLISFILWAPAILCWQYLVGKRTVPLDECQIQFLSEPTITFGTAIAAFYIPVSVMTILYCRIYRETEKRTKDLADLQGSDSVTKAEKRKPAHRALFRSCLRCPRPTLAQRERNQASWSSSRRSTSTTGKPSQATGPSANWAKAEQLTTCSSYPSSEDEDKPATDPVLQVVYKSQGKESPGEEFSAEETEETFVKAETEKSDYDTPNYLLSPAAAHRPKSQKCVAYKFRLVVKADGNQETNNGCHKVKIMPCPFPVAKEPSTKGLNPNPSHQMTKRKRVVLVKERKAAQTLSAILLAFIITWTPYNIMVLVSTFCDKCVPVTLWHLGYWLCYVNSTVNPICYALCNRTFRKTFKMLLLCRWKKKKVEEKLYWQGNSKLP
# M2 muscarinic receptor = target: T3, M2 muscarinic receptor (Homo sapiens, UniProt P08172); assay: R-SAT competitive antagonist assay; type: cell-based; set-up: expressed in transfected cells; host or cells: NIH/3T3; settings: nr = no significant antagonist or inverse agonist activity up to 1 μM, nr* = nr but significant agonist activity
# T3 sequence (P08172 1-466): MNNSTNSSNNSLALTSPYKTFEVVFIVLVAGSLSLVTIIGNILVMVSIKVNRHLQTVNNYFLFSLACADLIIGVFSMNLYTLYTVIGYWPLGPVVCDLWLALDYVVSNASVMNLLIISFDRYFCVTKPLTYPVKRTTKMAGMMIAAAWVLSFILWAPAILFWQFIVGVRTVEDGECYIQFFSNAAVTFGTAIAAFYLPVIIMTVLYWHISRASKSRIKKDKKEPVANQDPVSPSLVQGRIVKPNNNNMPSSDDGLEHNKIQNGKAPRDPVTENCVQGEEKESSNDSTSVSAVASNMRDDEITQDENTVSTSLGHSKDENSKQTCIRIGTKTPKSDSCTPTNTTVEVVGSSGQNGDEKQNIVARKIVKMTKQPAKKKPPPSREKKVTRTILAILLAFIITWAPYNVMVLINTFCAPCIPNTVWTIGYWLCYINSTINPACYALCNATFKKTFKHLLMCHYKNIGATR
# [3] = beagle, iv, 1 mg/kg, Plasma concentration after NDMC administration, NDMC i.v. 1 mg/kg
# [4] = beagle, iv, 1 mg/kg, Plasma concentration of compound measured after clozapine administration, clozapine i.v. 1 mg/kg
# [5] = beagle, po, 10 mg/kg, Plasma concentration after NDMC administration, NDMC p.o. 10 mg/kg
# [6] = beagle, po, 10 mg/kg, Plasma concentration of compound measured after clozapine administration, clozapine p.o. 10 mg/kg
# Chain of D3 dopamine receptor (P35462 whole entry): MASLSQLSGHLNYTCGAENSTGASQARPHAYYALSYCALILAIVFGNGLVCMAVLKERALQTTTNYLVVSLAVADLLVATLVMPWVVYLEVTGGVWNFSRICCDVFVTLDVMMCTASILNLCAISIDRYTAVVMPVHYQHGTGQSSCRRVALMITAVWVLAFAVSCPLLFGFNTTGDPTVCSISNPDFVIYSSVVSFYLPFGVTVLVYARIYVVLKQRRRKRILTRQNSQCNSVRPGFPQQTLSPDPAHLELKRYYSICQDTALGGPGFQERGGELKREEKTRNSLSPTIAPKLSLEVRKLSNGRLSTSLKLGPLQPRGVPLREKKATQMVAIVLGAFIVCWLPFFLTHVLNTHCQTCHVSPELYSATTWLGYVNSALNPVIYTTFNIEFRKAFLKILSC
smiles,measurement,setting,value
"Clc1ccc2c(c1)N=C(N1CCNCC1)c1ccccc1N2 [NDMC, 8-chloro-11-(1-piperazinyl)-5H-dibenzo [b,e][1,4] diazepine]",concentration at 2 min,[1]; [3],0.182 µg/mL
same,concentration at 5 min,[1]; [3],0.073 ± 0.022 µg/mL
same,concentration at 10 min,[1]; [3],0.05 ± 0.01 µg/mL
same,concentration at 30 min,[1]; [3],0.035 ± 0.002 µg/mL
same,concentration at 60 min,[1]; [3],0.032 ± 0.006 µg/mL
same,concentration at 120 min,[1]; [3],0.028 ± 0.004 µg/mL
same,concentration at 180 min,[1]; [3],0.027 ± 0.007 µg/mL
same,concentration at 240 min,[1]; [3],0.027 ± 0.004 µg/mL
same,concentration at 2 min,[1]; [4],0.00054 ± 0.00012 µg/mL
same,concentration at 5 min,[1]; [4],0.00047 ± 6e-05 µg/mL
same,concentration at 10 min,[1]; [4],0.00064 ± 0.00026 µg/mL
same,concentration at 30 min,[1]; [4],0.00172 ± 0.00075 µg/mL
same,concentration at 60 min,[1]; [4],0.00355 ± 0.00103 µg/mL
same,concentration at 120 min,[1]; [4],0.00431 ± 0.00134 µg/mL
same,concentration at 180 min,[1]; [4],0.00489 ± 0.00141 µg/mL
same,concentration at 240 min,[1]; [4],0.00444 ± 0.00131 µg/mL
same,concentration at 10 min,[1]; [5],0.001 µg/mL
same,concentration at 30 min,[1]; [5],0.014 ± 0.012 µg/mL
same,concentration at 60 min,[1]; [5],0.067 ± 0.037 µg/mL
same,concentration at 120 min,[1]; [5],0.155 ± 0.095 µg/mL
same,concentration at 180 min,[1]; [5],0.249 ± 0.044 µg/mL
same,concentration at 240 min,[1]; [5],0.274 ± 0.044 µg/mL
same,concentration at 360 min,[1]; [5],0.261 µg/mL
same,concentration at 10 min,[1]; [6],0 µg/mL
same,concentration at 30 min,[1]; [6],0.00245 µg/mL
same,concentration at 60 min,[1]; [6],0.0254 µg/mL
same,concentration at 120 min,[1]; [6],0.0058 µg/mL
same,concentration at 180 min,[1]; [6],0.0103 µg/mL
same,concentration at 240 min,[1]; [6],0.0192 µg/mL
same,concentration at 360 min,[1]; [6],0.0467 µg/mL
same,AUC,"[1]; beagle, serum, iv, 1 mg/kg",0.135 ± 0.0213 µg·h/mL
same,Cmax,"[1]; beagle, serum, iv, 1 mg/kg",0.353 µg/mL
same,Vd,"[1]; beagle, serum, iv, 1 mg/kg",28.2 ± 4.92 L/kg
same,half-life,"[1]; beagle, serum, iv, 1 mg/kg",13.2 ± 7 h
same,bioavailability,"[1]; beagle, serum, oral, 10 mg/kg",~44%
same,AUC,"[1]; beagle, serum, po, 10 mg/kg",0.598 ± 0.112 µg·h/mL
same,Cmax,"[1]; beagle, serum, po, 10 mg/kg",0.286 µg/mL
same,Tmax,"[1]; beagle, serum, po, 10 mg/kg",3.3 ± 1.2 h
same,bioavailability,"[1]; beagle, serum, po, 10 mg/kg",44%
same,time by which Cmax was achieved,[1]; after NDMC p.o. 10 mg/kg,≤ 3.3 h
same,peak NDMC levels as share of peak clozapine levels,[1]; after clozapine,approximately 16%
same,"pKi D3, competitive antagonist",D3 dopamine receptor,nr and nr^
same,share of total serum clozapine concentrations,[2],40-75%
same,M4 Efficacy,M4 muscarinic receptor,87 ± 8%
same,EC50,"M5 muscarinic receptor; R-SAT agonist, read-out: M5 pEC50 (converted)",0.0234 µM and 0.0251 µM
same,M5 Efficacy,"M5 muscarinic receptor; R-SAT, relative to carbachol, No response/nr = no agonist activity up to 10 μM",48 ± 6%
same,Ki,"M5 muscarinic receptor; functional pharmacological screen, read-out: Ki, partial agonist of M5",0.025 µM
same,"pKi M2, competitive antagonist",M2 muscarinic receptor,nr*

# Source: patent publication US20050085463A1 (priority 2003, published 2005)
